Results reported in patent publication US9758541B2 (priority 2013, dated 2017).

System: PC3 cells (non-hormone-dependent prostate cancer cells)
Settings: read-out: IC50 (μM) of P53, Table 2, 72 h exposure, MTS

Row | Substance | IC50 [µM]
1 | 2-ferrocenyl-1,1-bis-(4-hydroxyphenyl)-5-hydroxy-pent-1-ene [P53] | 4.43

System: MDA-MB-231 cells (non-hormone-dependent breast cancer cells)
Format: cell-based
Settings: not given

Row | Substance | IC50 [µM]
2 | N-{5-ferrocenyl-6,6-bis-(4-hydroxyphenyl)-hex-5-enyl}phthalimide [P720] | 0.33
3 | Ethyl 3-ene-3-ferrocenyl-4,4-bis-(4-hydroxyphenyl)-butanoate [P64] | 1.16
4 | Methyl 6-ene-6-ferrocenyl-7,7-bis-(4-hydroxyphenyl)-heptanoate [P504] | 0.62
5 | 2-ferrocenyl-1,1-bis-(4-hydroxyphenyl)-5-dimethylamino-pent-1-ene [P697] | 2.53
6 | 2,3-Dihydro-3-methoxy-2-[5-ferrocenyl-6,6-bis-(4-hydroxyphenyl)-hex-5-enyl]-1H-isoindol-1-one [P727] | 1.63
7 | 2,3-Dihydro-3-hydroxy-2-[4-ferrocenyl-5,5-bis-(4-hydroxyphenyl)-pent-4-enyl]-1H-isoindol-1-one [P710] | 0.59
8 | N-{4-ferrocenyl-5,5-bis-(4-hydroxyphenyl)-pent-4-enyl}phthalimide [P686] | 0.2
9 | 1,1-bis-(4-hydroxyphenyl)-5-hydroxy-2-ruthenocenyl-pent-1-en [W3] | 12.5
10 | 2-ferrocenyl-1-(4-hydroxyphenyl)-5-hydroxy-1-phenyl-pent-1-ene [P681] | 1.22

System: Mia-PaCa cells (pancreatic cancer cells)
Settings: read-out: IC50 (μM) of P53, Table 2, 72 h exposure, MTS

Row | Substance | IC50 [µM]
11 | 2-ferrocenyl-1,1-bis-(4-hydroxyphenyl)-5-hydroxy-pent-1-ene [P53] | 1.23
